# Test results published in US10660867B2, “Beta-hydroxyketones as topical active ingredients for the prevention or treatment of photodermatoses” (Merck Patent GmbH, priority 2015, dated 2020).
# Columns and labels:
# UV absorption spectrum = assay type: physicochemical
# Text: The absorption behaviour for the compound 3-(4-tert-butylphenyl)-3-hydroxy-1-(4-methoxy-phenyl)propan-1-one is depicted in FIG. 1 as representative.
# [1] = test system: test subjects with known PLE syndrome; assay: in vivo comparative study, skin reactions on UVA irradiation of treated skin; design: key to skin reaction on UVA irradiation, treated skin: 0 denotes no reaction; ± denotes weak reaction; + denotes clear reaction; ++ denotes strong reaction; +++ denotes very strong reaction; conditions: for skin reaction on UVA irradiation, treated skin: 2.0% by wt. in O/W emulsion, 2 mg/cm^2 daily
# Protocol: In the in vivo study described below, the following O/W emulsion is used:
# A comparative study with positive control is carried out on 6 test subjects with known PLE syndrome. The study was carried out in Germany in April over a period of 5 days. The positive control was untreated, irradiated skin. The irradiation was carried out with 100% UVA light in a sub-erythemal dose, which was determined individually. The preparation was applied daily to half of the décolletage (2 mg/cm^2).
# The measurements were carried out twice daily, 10 min. after application of the preparation and immediately after irradiation.
# In the case of all test subjects, skin manifestations which have the presentation of polymorphic light eruption appeared on untreated skin. In case of 4 test subjects, no polymorphic light eruption was observed on treated skin. Only in the case of 2 test subjects was a weak reaction observed.
# [2] = test system: transcription factor NF-κB; assay: inhibition of activation of the transcription factor NF-κB
# Text: It is furthermore thought that the compounds of the formula (I), as described above or preferably described below, have an inflammation-inhibiting action. This property also supports the therapeutic and non-therapeutic treatment of photodermatosis. […] 1998, 95(6):729-31.
# [3] = photoconversion of compound A into the UVA filter avobenzone on irradiation; assay type: physicochemical
# Text: As representative of the compounds of the formula (I), the efficacy of 3-(4-tert-butylphenyl)-3-hydroxy-1-(4-methoxyphenyl)propan-1-one in vivo is confirmed in the experimental part, where the proportion of UVA filter formed by decomposition of 3-(4-tert-butylphenyl)-3-hydroxy-1-(4-methoxy-phenyl)propan-1-one on exposure to UV light under the selected conditions of the study is only 0.1% by weight.
# Under the conditions of the in vivo study, conversion of compound A into the UVA filter avobenzone in an amount which could exert an influence on the skin appearances of the test subjects can be excluded.
# This can be stated because if a 2% solution of compound A in Cosmacol® ELI (C12-13 alkyl lactate) is irradiated with UVA/UVB light (20/1) in a dose of 5 MED (corresponding to 250 kJ/m^2), 0.1% of avobenzone is formed by conversion.
# Under the conditions of the in vivo experiment, a UVA dose of 20 J/cm^2 (corresponding to 200 kJ/m^2) is irradiated, i.e. even less than 0.1% of avobenzone will form by conversion under these conditions.
# [4] = of 6 test subjects with known PLE syndrome, 5 days, UVA irradiation
structure (smiles),measurement,setting,value
"COc1ccc(C(=O)CC(O)c2ccc(C(C)(C)C)cc2)cc1 (stereo not shown) [Compound A, 3-(4-tert-butylphenyl)-3-hydroxy-1-(4-methoxyphenyl)-propan-1-one]",absorption in the UVA region,"UV absorption spectrum; UVA, 320-400 nm",does not absorb in the UVA region
same,absorption,UV absorption spectrum; wavelength 215.5 nm,0.22
same,absorption,UV absorption spectrum; wavelength 273 nm,0.22
same,effect on manifestations of polymorphic light eruption on irradiation,"[1]; 6 test subjects, treated vs untreated irradiated skin",suppresses or significantly reduces the manifestations of polymorphic light eruption
same,test subjects with no polymorphic light eruption observed on treated skin,[1]; [4],4 test subjects
same,test subjects with weak reaction on treated skin,[1]; [4],2 test subjects
same,"skin reaction on UVA irradiation, treated skin","[1]; test subject 1, day 1, after irradiation",0
same,"skin reaction on UVA irradiation, treated skin","[1]; test subject 1, day 1, before irradiation",0
same,"skin reaction on UVA irradiation, treated skin","[1]; test subject 1, day 2, after irradiation",0
same,"skin reaction on UVA irradiation, treated skin","[1]; test subject 1, day 2, before irradiation",0
same,"skin reaction on UVA irradiation, treated skin","[1]; test subject 1, day 3, after irradiation",0
same,"skin reaction on UVA irradiation, treated skin","[1]; test subject 1, day 3, before irradiation",0
same,"skin reaction on UVA irradiation, treated skin","[1]; test subject 1, day 4, after irradiation",±
same,"skin reaction on UVA irradiation, treated skin","[1]; test subject 1, day 4, before irradiation",±
same,"skin reaction on UVA irradiation, treated skin","[1]; test subject 1, day 5, after irradiation",±
same,"skin reaction on UVA irradiation, treated skin","[1]; test subject 1, day 5, before irradiation",±
same,"skin reaction on UVA irradiation, treated skin","[1]; test subject 2, day 1, after irradiation",0
same,"skin reaction on UVA irradiation, treated skin","[1]; test subject 2, day 1, before irradiation",0
same,"skin reaction on UVA irradiation, treated skin","[1]; test subject 2, day 2, after irradiation",0
same,"skin reaction on UVA irradiation, treated skin","[1]; test subject 2, day 2, before irradiation",0
same,"skin reaction on UVA irradiation, treated skin","[1]; test subject 2, day 3, after irradiation",0
same,"skin reaction on UVA irradiation, treated skin","[1]; test subject 2, day 3, before irradiation",0
same,"skin reaction on UVA irradiation, treated skin","[1]; test subject 2, day 4, after irradiation",0
same,"skin reaction on UVA irradiation, treated skin","[1]; test subject 2, day 4, before irradiation",0
same,"skin reaction on UVA irradiation, treated skin","[1]; test subject 2, day 5, after irradiation",0
same,"skin reaction on UVA irradiation, treated skin","[1]; test subject 2, day 5, before irradiation",0
same,"skin reaction on UVA irradiation, treated skin","[1]; test subject 3, day 1, after irradiation",0
same,"skin reaction on UVA irradiation, treated skin","[1]; test subject 3, day 1, before irradiation",0
same,"skin reaction on UVA irradiation, treated skin","[1]; test subject 3, day 2, after irradiation",0
same,"skin reaction on UVA irradiation, treated skin","[1]; test subject 3, day 2, before irradiation",0
same,"skin reaction on UVA irradiation, treated skin","[1]; test subject 3, day 3, after irradiation",0
same,"skin reaction on UVA irradiation, treated skin","[1]; test subject 3, day 3, before irradiation",0
same,"skin reaction on UVA irradiation, treated skin","[1]; test subject 3, day 4, after irradiation",0
same,"skin reaction on UVA irradiation, treated skin","[1]; test subject 3, day 4, before irradiation",0
same,"skin reaction on UVA irradiation, treated skin","[1]; test subject 3, day 5, after irradiation",0
same,"skin reaction on UVA irradiation, treated skin","[1]; test subject 3, day 5, before irradiation",0
same,"skin reaction on UVA irradiation, treated skin","[1]; test subject 4, day 1, after irradiation",0
same,"skin reaction on UVA irradiation, treated skin","[1]; test subject 4, day 1, before irradiation",0
same,"skin reaction on UVA irradiation, treated skin","[1]; test subject 4, day 2, after irradiation",0
same,"skin reaction on UVA irradiation, treated skin","[1]; test subject 4, day 2, before irradiation",0
same,"skin reaction on UVA irradiation, treated skin","[1]; test subject 4, day 3, after irradiation",0
same,"skin reaction on UVA irradiation, treated skin","[1]; test subject 4, day 3, before irradiation",0
same,"skin reaction on UVA irradiation, treated skin","[1]; test subject 4, day 4, after irradiation",0
same,"skin reaction on UVA irradiation, treated skin","[1]; test subject 4, day 4, before irradiation",0
same,"skin reaction on UVA irradiation, treated skin","[1]; test subject 4, day 5, after irradiation",0
same,"skin reaction on UVA irradiation, treated skin","[1]; test subject 4, day 5, before irradiation",0
same,"skin reaction on UVA irradiation, treated skin","[1]; test subject 5, day 1, after irradiation",0
same,"skin reaction on UVA irradiation, treated skin","[1]; test subject 5, day 1, before irradiation",0
same,"skin reaction on UVA irradiation, treated skin","[1]; test subject 5, day 2, after irradiation",0
same,"skin reaction on UVA irradiation, treated skin","[1]; test subject 5, day 2, before irradiation",0
same,"skin reaction on UVA irradiation, treated skin","[1]; test subject 5, day 3, after irradiation",0
same,"skin reaction on UVA irradiation, treated skin","[1]; test subject 5, day 3, before irradiation",0
same,"skin reaction on UVA irradiation, treated skin","[1]; test subject 5, day 4, after irradiation",0
same,"skin reaction on UVA irradiation, treated skin","[1]; test subject 5, day 4, before irradiation",0
same,"skin reaction on UVA irradiation, treated skin","[1]; test subject 5, day 5, after irradiation",0
same,"skin reaction on UVA irradiation, treated skin","[1]; test subject 5, day 5, before irradiation",0
same,"skin reaction on UVA irradiation, treated skin","[1]; test subject 6, day 1, after irradiation",0
same,"skin reaction on UVA irradiation, treated skin","[1]; test subject 6, day 1, before irradiation",0
same,"skin reaction on UVA irradiation, treated skin","[1]; test subject 6, day 2, after irradiation",0
same,"skin reaction on UVA irradiation, treated skin","[1]; test subject 6, day 2, before irradiation",0
same,"skin reaction on UVA irradiation, treated skin","[1]; test subject 6, day 3, after irradiation",±
same,"skin reaction on UVA irradiation, treated skin","[1]; test subject 6, day 3, before irradiation",±
same,"skin reaction on UVA irradiation, treated skin","[1]; test subject 6, day 4, after irradiation",±
same,"skin reaction on UVA irradiation, treated skin","[1]; test subject 6, day 4, before irradiation",±
same,"skin reaction on UVA irradiation, treated skin","[1]; test subject 6, day 5, after irradiation",±
same,"skin reaction on UVA irradiation, treated skin","[1]; test subject 6, day 5, before irradiation",±
same,activation of the transcription factor NF-κB,[2],inhibits activation
same,avobenzone formed by conversion,"[3]; 2% solution in Cosmacol ELI (C12-13 alkyl lactate), UVA/UVB light (20/1), dose 5 MED (250 kJ/m^2)",0.1%
same,avobenzone formed by conversion,"[3]; conditions of the in vivo experiment, UVA dose 20 J/cm^2 (200 kJ/m^2)",less than 0.1%
same,proportion of UVA filter formed by decomposition on exposure to UV light,[3]; under the selected conditions of the study,0.1 % by weight
